For data set [1], the system named is SHIV162p3 viral strain (B-R5). Briefly: Antiviral activity on TZM-bl cells, SHIV162p3 strain. Type of data set: cell-based. The conditions noted are these: luciferase, 48 h, clade-tropism B-R5. The protocol:
(§1) The antiviral activity of the tested compounds was determined by pre-incubating 10^4 TZM-bl cells/well in a 96-well plate for 30 min at 37° C. and 5% CO2 with or without a serial dilution of the compound. Next, 200 TCID50 of viruses were added to each well and cultures were incubated for 48 h before luciferase activity was quantified. Each compound was tested in triplicate in a single experiment. Antiviral activity was expressed as the percentage of viral inhibition compared to the untreated control and plotted against the compound concentration. Next, non-linear regression analysis was used to calculate the 50% effective concentration (EC50).
(§2) The miniCD4 conjugates were then evaluated for their antiviral activity on TZM-bl cells that express Luciferase under the control of the HIV LTR (collaboration G. Vanham, Anvers) according to the protocol described above. All antiviral results are reported in the table below in the form of EC50 values (nM).

Data set [2] relates to Bal viral strain (B-R5). The data set is described as follows: microbe, parasite or virus in culture. The settings on record: Human immunodeficiency virus 1, BAL; TZM-bl cells, luciferase, 48 h; clade-tropism B-R5. It is filed as cell-based, HIV. The protocol: as §1, §2
In data set [3] the test system is Ca10-3 (CRF01) viral strain (AE-X4). The data set is described as follows: microbe, parasite or virus in culture. It is filed as cell-based, HIV. The settings on record: Human immunodeficiency virus 1, TZM-bl, 48 h, read-out: EC50, viral strain Ca10-3 (CRF01). On the procedure: as §1, §2
The subject of data set [4] is IIIB viral strain (B-X4). Briefly: microbe, parasite or virus in culture. The conditions noted are these: Human immunodeficiency virus 1, IIIB; TZM-bl cells, luciferase, 48 h; clade-tropism B-X4. It is filed as cell-based, HIV. On the procedure: as §1, §2
In data set [5] the test system is MN viral strain (B-X4). Briefly: microbe, parasite or virus in culture. Type of data set: cell-based, HIV. The settings on record: Human immunodeficiency virus 1; TZM-bl cells, luciferase, 48 h; clade-tropism B-X4. The protocol: as §1, §2
Data set [6] relates to MP568 (CRF02) viral strain (AG-R5). Briefly: microbe, parasite or virus in culture. Type of data set: cell-based, HIV. The conditions noted are these: Human immunodeficiency virus 1, TZM-bl, 48 h, read-out: EC50, viral strain MP568 (CRF02). The protocol:
as §1, §2

Data set [7] has as its system SF162 viral strain (B-R5). Briefly: microbe, parasite or virus in culture. It is filed as cell-based, HIV. The conditions noted are these: Human immunodeficiency virus 1; TZM-bl cells, luciferase, 48 h; clade-tropism B-R5. On the procedure:
as §1, §2

Data set [8] has as its system VI1888 (CRF01) viral strain (AE-R5). Briefly: microbe, parasite or virus in culture. It is filed as cell-based, HIV. The conditions noted are these: Human immunodeficiency virus 1, TZM-bl, 48 h, read-out: EC50, viral strain VI1888 (CRF01). The protocol: as §1, §2
For data set [9], the system named is VI820 viral strain (A-X4R5). The data set is described as follows: microbe, parasite or virus in culture. It is filed as cell-based, HIV. The settings on record: Human immunodeficiency virus 1, TZM-bl, 48 h, read-out: EC50, viral strain VI820. The protocol: as §1, §2
Data set [10] concerns VI824 viral strain (D-R5). The data set is described as follows: microbe, parasite or virus in culture. It is filed as cell-based, HIV. The settings on record: Human immunodeficiency virus 1, TZM-bl, 48 h, read-out: EC50, viral strain VI824. On the procedure:
as §1, §2

For data set [11], the system named is VI829 viral strain (C-R5). Briefly: microbe, parasite or virus in culture. It is filed as cell-based, HIV. The conditions noted are these: Human immunodeficiency virus 1; TZM-bl cells, luciferase, 48 h; clade-tropism C-R5. The protocol: as §1, §2
For data set [12], the system named is p246F10 viral strain (C-R5). The data set is described as follows: microbe, parasite or virus in culture. It is filed as cell-based, HIV. The conditions noted are these: Human immunodeficiency virus 1, TZM-bl, 48 h, read-out: EC50, viral strain p246F10. On the procedure: as §1, §2
Data set [13] has as its system pREJO.c/2864 cl2 viral strain (B-R5). Briefly: microbe, parasite or virus in culture. It is filed as cell-based, HIV. The conditions noted are these: Human immunodeficiency virus 1, TZM-bl, 48 h, read-out: EC50, viral strain pREJO.c/2864 cl2. On the procedure:
as §1, §2

Data set [14] can be described thus: Cytotoxic activity, WST-1 cell proliferation assay. It is filed as cell-based. The settings on record: human. The protocol:
Cytotoxicity was determined using the water-soluble tetrazolium-1 (WST-1) cell proliferation assay, which is based on the cleavage of the tetrazolium salt WST-1 to a formazan dye by cellular dehydrogenases. Because this bioreduction is dependent on the glycolytic production of NAD(P)H in viable cells, the amount of formazan dye formed is correlated directly to the number of viable cells in a culture. Quantification is performed by measuring absorbance at 450 nm in a multiwell plate reader. An amount of 10^4 cells was plated per well in a 96-well plate, and a serial dilution of compound was added. Forty eight hours later, cell proliferation reagent was added and cell viability was measured compared to untreated control cultures. Cell viability was plotted against the compound concentration, and nonlinear regression analysis was performed to evaluate the 50% cytotoxic concentration (CC50).
The miniCD4 conjugates were then evaluated for their cytotoxic activity according to the protocol described above. All cytotoxic results are reported in the table below in the form of CC50 values (nM).

As usually defined, the CC50 is the concentration giving 50% cytotoxicity. The low end stands for greater toxicity to the cells, the high end for lower toxicity to the cells.

On to `Cc1cc(C)c(Nc2ccnc(Nc3ccc(C#N)cc3)n2)c(C)c1` [Dapivirine (TMC120), Dapivirine], for which the EC50 was greater than 1000 nM in [1]; 1.65 nM in data set [2]; 1.3 nM in data set [3]; 0.84 nM in data set [4]; 1.5 nM in [5]; 1.1 nM in data set [6]. In addition, the EC50 was determined as 1.3 nM in data set [7]; 2.1 nM in data set [8]; 1.95 nM in data set [9]; 1.2 nM in data set [10]; 1.3 nM in data set [11]; 1.4 nM in data set [12]. In addition, the EC50 in data set [13] stood at 1.6 nM. Besides, the CC50 at 48 h in data set [14] was 2520 nM.

The record behind these values is US9907860B2, “Conjugated molecules comprising a peptide derived from the CD4 receptor coupled to an anionic polypeptide for the treatment of AIDS” (INSTITUT PASTEUR, priority 2014, dated 2018).
